Measurements taken from patent US12486267B2, “Imidazo[1,2-A]pyridine and [1,2,4]triazolo[1,5-A]pyridine derivatives as TLR9 inhibitors for the treatment of fibrosis” (BRISTOL-MYERS SQUIBB COMPANY, priority 2020, dated 2025).

Legend:
Assay type in all cases: cell-based
human TLR8 = target: T1, human TLR8 (Homo sapiens, UniProt Q9NR97); test: TLR8 inhibition reporter assay (HEK-Blue cells, SEAP reporter); conditions: HEK-Blue cells overexpressing human TLR8; stimulated with R848 15.9 μM; 22 hour incubation; SEAP readout
T1 sequence (Q9NR97 27-1041): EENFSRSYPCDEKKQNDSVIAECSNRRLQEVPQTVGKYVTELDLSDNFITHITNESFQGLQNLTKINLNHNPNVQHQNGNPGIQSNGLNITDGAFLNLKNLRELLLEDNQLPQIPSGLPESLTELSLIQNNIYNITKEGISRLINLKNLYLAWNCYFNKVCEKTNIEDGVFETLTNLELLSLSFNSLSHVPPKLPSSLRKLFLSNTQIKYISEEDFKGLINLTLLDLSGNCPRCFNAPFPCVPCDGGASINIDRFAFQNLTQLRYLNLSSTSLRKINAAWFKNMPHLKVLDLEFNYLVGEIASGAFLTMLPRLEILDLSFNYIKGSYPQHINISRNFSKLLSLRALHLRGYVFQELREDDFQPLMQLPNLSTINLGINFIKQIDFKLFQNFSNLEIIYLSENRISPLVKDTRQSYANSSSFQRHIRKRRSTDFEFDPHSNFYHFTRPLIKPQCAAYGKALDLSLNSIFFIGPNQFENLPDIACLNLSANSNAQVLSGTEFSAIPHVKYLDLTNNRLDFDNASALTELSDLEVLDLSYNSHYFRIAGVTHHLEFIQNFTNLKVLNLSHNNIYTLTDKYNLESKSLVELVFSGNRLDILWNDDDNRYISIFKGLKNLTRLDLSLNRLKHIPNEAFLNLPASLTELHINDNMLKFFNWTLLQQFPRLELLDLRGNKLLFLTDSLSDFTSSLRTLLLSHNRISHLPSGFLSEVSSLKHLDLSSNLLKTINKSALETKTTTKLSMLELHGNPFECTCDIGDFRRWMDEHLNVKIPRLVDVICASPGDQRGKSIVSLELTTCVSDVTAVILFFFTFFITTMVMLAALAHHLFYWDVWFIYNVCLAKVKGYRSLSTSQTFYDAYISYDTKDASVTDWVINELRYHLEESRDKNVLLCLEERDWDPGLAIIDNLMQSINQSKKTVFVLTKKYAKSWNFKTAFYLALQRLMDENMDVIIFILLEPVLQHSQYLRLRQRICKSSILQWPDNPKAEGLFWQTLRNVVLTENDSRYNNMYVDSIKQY
Summary of the method: (§1)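 HEK-Blue cells with NF-κB/AP-1-driven SEAP pre-treated 30 min with compound (0.05 nM–50 μM), then stimulated with gardiquimod 7.5 μM (TLR7), R848 15.9 μM (TLR8) or ODN2006 5 nM (TLR9). SEAP detected after 22 h at 37 °C; percent inhibition relative to agonist-plus-DMSO and known-inhibitor wells.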

human TLR9 = target: T2, human TLR9 (Homo sapiens, UniProt Q9NR96); test: TLR9 inhibition reporter assay (HEK-Blue cells, SEAP reporter); conditions: HEK-Blue cells overexpressing human TLR9; stimulated with ODN2006 5 nM; 22 hour incubation; SEAP readout
T2 sequence (Q9NR96 26-1032): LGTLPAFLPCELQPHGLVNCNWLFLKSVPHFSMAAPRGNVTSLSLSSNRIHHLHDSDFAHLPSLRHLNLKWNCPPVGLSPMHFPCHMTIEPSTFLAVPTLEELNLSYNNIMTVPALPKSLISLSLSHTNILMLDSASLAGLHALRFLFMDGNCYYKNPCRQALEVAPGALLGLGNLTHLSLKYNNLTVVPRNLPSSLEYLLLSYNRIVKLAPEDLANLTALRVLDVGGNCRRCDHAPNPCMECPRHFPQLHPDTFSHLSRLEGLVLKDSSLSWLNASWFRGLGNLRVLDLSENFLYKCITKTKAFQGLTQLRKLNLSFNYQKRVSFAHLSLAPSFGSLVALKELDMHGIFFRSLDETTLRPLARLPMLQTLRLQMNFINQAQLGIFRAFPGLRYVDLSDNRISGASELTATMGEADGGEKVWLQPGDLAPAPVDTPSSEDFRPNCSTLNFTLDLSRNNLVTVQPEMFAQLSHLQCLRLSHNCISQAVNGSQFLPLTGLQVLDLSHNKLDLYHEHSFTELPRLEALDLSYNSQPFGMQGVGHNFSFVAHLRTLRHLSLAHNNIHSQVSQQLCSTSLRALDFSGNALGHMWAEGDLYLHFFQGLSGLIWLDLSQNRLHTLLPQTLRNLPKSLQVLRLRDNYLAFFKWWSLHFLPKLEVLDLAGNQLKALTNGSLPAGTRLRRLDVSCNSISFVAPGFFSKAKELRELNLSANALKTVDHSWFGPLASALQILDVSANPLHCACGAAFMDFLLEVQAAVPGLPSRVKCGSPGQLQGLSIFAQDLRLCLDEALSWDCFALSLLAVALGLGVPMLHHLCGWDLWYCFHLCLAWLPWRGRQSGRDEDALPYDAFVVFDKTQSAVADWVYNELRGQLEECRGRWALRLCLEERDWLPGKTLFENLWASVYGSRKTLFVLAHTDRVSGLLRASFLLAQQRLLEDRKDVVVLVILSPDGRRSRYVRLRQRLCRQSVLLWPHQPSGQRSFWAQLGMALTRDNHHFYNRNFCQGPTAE
Summary of the method: as §1

human TLR7 = target: T3, human TLR7 (Homo sapiens, UniProt Q9NYK1); test: TLR7 inhibition reporter assay (HEK-Blue cells, SEAP reporter); conditions: HEK-Blue cells overexpressing human TLR7; stimulated with gardiquimod 7.5 μM; 22 hour incubation; SEAP readout
T3 sequence (Q9NYK1 27-1049): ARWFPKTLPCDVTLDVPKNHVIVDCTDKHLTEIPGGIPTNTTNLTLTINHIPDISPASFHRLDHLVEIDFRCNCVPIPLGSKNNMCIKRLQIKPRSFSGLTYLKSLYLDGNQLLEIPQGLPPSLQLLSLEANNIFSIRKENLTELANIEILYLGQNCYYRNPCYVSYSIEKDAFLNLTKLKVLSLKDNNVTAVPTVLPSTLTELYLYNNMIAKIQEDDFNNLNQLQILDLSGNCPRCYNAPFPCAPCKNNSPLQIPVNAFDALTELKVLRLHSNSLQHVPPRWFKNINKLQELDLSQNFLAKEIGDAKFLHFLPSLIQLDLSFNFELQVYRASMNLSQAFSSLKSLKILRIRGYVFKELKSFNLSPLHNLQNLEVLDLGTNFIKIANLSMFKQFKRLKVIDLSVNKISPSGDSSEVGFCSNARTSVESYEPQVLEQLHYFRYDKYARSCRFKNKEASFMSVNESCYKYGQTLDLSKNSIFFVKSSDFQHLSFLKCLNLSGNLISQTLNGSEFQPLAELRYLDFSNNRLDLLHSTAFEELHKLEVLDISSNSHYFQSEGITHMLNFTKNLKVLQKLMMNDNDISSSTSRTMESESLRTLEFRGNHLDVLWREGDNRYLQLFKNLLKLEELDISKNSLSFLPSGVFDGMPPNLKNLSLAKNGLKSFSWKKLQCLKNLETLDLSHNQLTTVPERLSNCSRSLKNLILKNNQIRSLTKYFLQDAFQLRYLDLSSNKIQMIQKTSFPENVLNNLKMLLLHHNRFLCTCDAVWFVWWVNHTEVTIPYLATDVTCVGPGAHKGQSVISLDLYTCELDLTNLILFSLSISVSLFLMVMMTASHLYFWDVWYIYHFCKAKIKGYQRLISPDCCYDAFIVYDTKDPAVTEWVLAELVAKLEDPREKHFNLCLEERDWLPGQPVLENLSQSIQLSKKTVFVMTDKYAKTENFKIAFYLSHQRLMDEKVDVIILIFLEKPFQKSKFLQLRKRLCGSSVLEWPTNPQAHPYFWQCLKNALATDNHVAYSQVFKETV
Summary of the method: as §1

Structure (SMILES)	IC50 (human TLR8) [nM]	IC50 (human TLR9) [nM]	IC50 (human TLR7) [nM]
COc1ccc(-c2cn3cc(C4CCN(C5CC6(C5)CN(C(C)C)C6)CC4)cc(C)c3n2)cc1OC [Example 13, 2-(3,4-dimethoxyphenyl)-6-(1-(2-isopropyl-2-azaspiro[3.3]heptan-6-yl)piperidin-4-yl)-8-methylimidazo[1,2-a]pyridine]	> 50000	163	47000
COc1ccc(-c2cn3cc(C4CCN(C5CC6(C5)CN(C5CCC5)C6)CC4)cc(C)c3n2)cc1OC [Example 14, 6-(1-(2-cyclobutyl-2-azaspiro[3.3]heptan-6-yl)piperidin-4-yl)-2-(3,4-dimethoxyphenyl)-8-methylimidazo[1,2-a]pyridine]	> 50000	68	> 50000
COc1ccc(-c2cn3cc(C4CCN(C5CC6(C5)CN(CC(C)C)C6)CC4)cc(C)c3n2)cc1OC [Example 15, 2-(3,4-dimethoxyphenyl)-6-(1-(2-isobutyl-2-azaspiro[3.3]heptan-6-yl)piperidin-4-yl)-8-methylimidazo[1,2-a]pyridine]	> 50000	47	46000
COc1ccc(-c2cn3cc(C4CCN(C5CC6(C5)CN(CC5CC5)C6)CC4)cc(C)c3n2)cc1OC [Example 16, 6-(1-(2-(cyclopropylmethyl)-2-azaspiro[3.3]heptan-6-yl)piperidin-4-yl)-2-(3,4-dimethoxyphenyl)-8-methylimidazo[1,2-a]pyridine]	> 50000	14	2000
COc1ccc(-c2cn3cc(C4CCN(C5CC6(C5)CN(C5CC5)C6)CC4)cc(C)c3n2)cc1OC [Example 17, 6-(1-(2-cyclopropyl-2-azaspiro[3.3]heptan-6-yl)piperidin-4-yl)-2-(3,4-dimethoxyphenyl)-8-methylimidazo[1,2-a]pyridine]	> 50000	22	2300
COc1ccc(-c2nc3cc(C4CCN(C5CCN(C(C)C)CC5)CC4)ccn3n2)cc1OC [Example 60, 2-(3,4-dimethoxyphenyl)-7-(1′-isopropyl-[1,4′-bipiperidin]-4-yl)-[1,2,4]triazolo[1,5-a]pyridine]	> 50000	1100	29000
COc1ccc(-c2nc3cc(C4CCN(C5CCN(CC(C)C)CC5)CC4)ccn3n2)cc1OC [Example 61, 2-(3,4-dimethoxyphenyl)-7-(1′-isobutyl-[1,4′-bipiperidin]-4-yl)-[1,2,4]triazolo[1,5-a]pyridine]	> 50000	1240	11000

Further lines, results first:

IC50 (human TLR8) [nM]	IC50 (human TLR9) [nM]	IC50 (human TLR7) [nM]	Structure (SMILES)
> 50000	252	16000	COc1ccc(-c2cn3cc(C4CCN(C5CCN(CC(C)C)CC5)CC4)cc(C)c3n2)cc1F [Example 6, 2-(3-fluoro-4-methoxyphenyl)-6-(1′-isobutyl-[1,4′-bipiperidin]-4-yl)-8-methylimidazo[1,2-a]pyridine]
> 50000	132	7800	Cc1cc(C2CCN(C3CCN(C4CC4)CC3)CC2)cn2cc(-c3ccc(S(C)(=O)=O)cc3)nc12 [Example 7, 6-(1′-cyclopropyl-[1,4′-bipiperidin]-4-yl)-8-methyl-2-(4-(methylsulfonyl)phenyl) imidazo[1,2-a]pyridine]
> 50000	21	2300	Cc1cc(C2CCN(C3CCN(C(C)C)CC3)CC2)cn2cc(-c3ccc(S(C)(=O)=O)cc3)nc12 [Example 8, 6-(1′-isopropyl-[1,4′-bipiperidin]-4-yl)-8-methyl-2-(4-(methylsulfonyl)phenyl) imidazo[1,2-a]pyridine]
> 50000	42	3300	Cc1cc(C2CCN(C3CCN(CC(C)C)CC3)CC2)cn2cc(-c3ccc(S(C)(=O)=O)cc3)nc12 [Example 9, 6-(1′-isobutyl-[1,4′-bipiperidin]-4-yl)-8-methyl-2-(4-(methylsulfonyl)phenyl) imidazo[1,2-a]pyridine]
> 50000	129	5200	COc1ccc(-c2cn3cc(C4CCN(C5CCN(C6CC6)CC5)CC4)ccc3n2)cc1OC [Example 10, 6-(1′-cyclopropyl-[1,4′-bipiperidin]-4-yl)-2-(3,4-dimethoxyphenyl)imidazo[1,2-a]pyridine]
> 50000	77	5600	COc1ccc(-c2cn3cc(C4CCN(C5CCN(C(C)C)CC5)CC4)ccc3n2)cc1OC [Example 11, 2-(3,4-dimethoxyphenyl)-6-(1′-isopropyl-[1,4′-bipiperidin]-4-yl)imidazo[1,2-a]pyridine]
> 50000	122	2700	COc1ccc(-c2cn3cc(C4CCN(C5CCN(CC(C)C)CC5)CC4)ccc3n2)cc1OC [Example 12, 2-(3,4-dimethoxyphenyl)-6-(1′-isobutyl-[1,4′-bipiperidin]-4-yl)imidazo[1,2-a]pyridine]
